Data set [1] concerns JAK2-mediated pSTAT5 signaling in constitutively active essential thrombocytopenia cells carrying the V617F mutation. As to the kind of experiment: SET2-pSTAT5 Cellular Assay. The class given is cell-based. Particulars: Homo sapiens, SET-2, 4 hours. On the procedure: This assay measures inhibition of JAK2-mediated pSTAT5 signaling in constitutively active essential thrombocytopenia cells carrying the V617F mutation. Cells are harvested from a flask into cell culture medium, and the number of cells is counted. The cells are diluted with culture medium and 100 μL of cell suspension (50000/well) is added into each well of a 96-well cell culture plate. A solution of test compound is added to the assay plate. The plates are covered with a lid and placed in a 37° C. 5% CO2 incubator for 4 hours. After 4 hours, the cells are spun, and the cell pellets are re-suspended with 100 μL cold PBS. Then, the cells are spun again at 4° C. and 4000 rpm for 5 min. PBS is aspirated, and 25 μL lysis buffer (with protease and phosphatase inhibitor cocktail) is added to each cell pellet. The cell lysate is shaken at 4° C. for 20 min to fully lyse the cells. The cell lysate is spun at 4° C. and 4000 rpm for 15 min, and then the supernatant is transferred into a new plate and stored at −80° C. Meso-scale discovery (MSD) is used to analyze plates as follows: a standard MSD plate is coated with capture antibody in PBS (40 μL/well) and is incubated at 4° C. overnight with shaking. […] MSD reading buffer (1×) is added to the plates (150 μL/well), and they are diluted from 4× with water. […]

A further data set can be described thus: Caco2 Permeability Assay. The class given is in vitro ADME. To be noted: human, Caco-2, pH 7.4; for Papp A→B at 2 h, 5 μM: apical to basolateral; for efflux ratio at 2 h, 5 μM: read-out: Efflux Ratio (ER). On the procedure: Preparation of Caco-2 Cells: 50 μL and 25 mL of cell culture medium are added to each well of a Transwell® insert and reservoir, respectively. Then, the HTS Transwell® plates are incubated at 37° C., 5% CO2 for 1 hour before cell seeding. Caco-2 cell cells are diluted to 6.86×10^5 cells/mL with culture medium, and 50 μL of cell suspension are dispensed into the filter well of the 96-well HTS Transwell® plate. Cells are cultivated for 14-18 days in a cell culture incubator at 37° C., 5% CO2, 95% relative humidity. Cell culture medium is replaced every other day, beginning no later than 24 hours after initial plating.
Preparation of Stock Solutions: 10 mM stock solutions of test compounds arc prepared in DMSO. The stock solutions of positive controls are prepared in DMSO at the concentration of 10 mM. Digoxin and propranolol are used as control compounds in this assay.
Assessment of Cell Monolayer Integrity: Medium is removed from the reservoir and each Transwell® insert and is replaced with prewarmed fresh culture medium. Transepithelial electrical resistance (TEER) across the monolayer is measured using Millicell Epithelial Volt-Ohm measuring system (Millipore, USA). The Plate is returned to the incubator once the measurement is done. The TEER value is calculated according to the following equation: TEER measurement (ohms)×Area of membrane (cm^2)=TEER value (ohm·cm^2). A TEER value greater than 230 ohm·cm^2 indicates a well-qualified Caco-2 monolayer.
Assay Procedure: The Caco-2 plate is removed from the incubator and washed twice with pre-warmed HBSS (10 mM HEPES, pH 7.4), and then incubated at 37° C. for 30 minutes. The stock solutions of control compounds are diluted in DMSO to get 1 mM solutions and then diluted with HBSS (10 mM HEPES, pH 7.4) to get 5 μM working solutions. The stock solutions of the test compounds are diluted in DMSO to get 1 mM solutions and then diluted with HBSS (10 mM HEPES and 4% BSA, pH 7.4) to get 5 μM working solutions. The final concentration of DMSO in the incubation system is 0.5%. To determine the rate of drug transport in the apical to basolateral direction. 75 μL of 5 μM working solutions of test compounds are added to the Transwell® insert (apical compartment) and the wells in the receiver plate (basolateral compartment) are filled with 235 μL of HBSS (10 mM HEPES and 4% BSA, pH 7.4). To determine the rate of drug transport in the basolateral to apical direction, 235 μL of 5 μM working solutions of test compounds are added to the receiver plate wells (basolateral compartment) and then the Transwell® inserts (apical compartment) are filled with 75 μL of HBSS (10 mM HEPES and 4% BSA, pH 7.4). […]

In turn, `CN(C)C(=O)Nc1cc(Oc2cnc3nc(Nc4cc(C(F)(F)F)cn(C)c4=O)n(C)c3c2C#N)ccn1` [Compound 1, 3-(4-((7-cyano-1-methyl-2-((1-methyl-2-oxo-5-(trifluoromethyl)-1,2-dihydropyridin-3-yl)amino)-1H-imidazo[4,5-b]pyridin-6-yl)oxy)pyridin-2-yl)-1,1-dimethylurea] had an IC50 in data set [1] of less than 125 nM. Besides, in the data set “Caco2 Permeability Assay”, the Papp A→B at 2 h, 5 μM came out at 7 ×10⁻⁶ cm/s and the efflux ratio at 2 h, 5 μM lay in the range of 2 to 5.

`CCN1CCN(Cc2ccc(Nc3nc4ccc(Oc5ccnc(NC(C)=O)c5)cc4n3C)cc2C(F)(F)F)CC1` [Compound R-1, reference compound] gave an IC50 in data set [1] of 200 to 1000 nM. For the same compound, in “Caco2 Permeability Assay”, the Papp A→B at 2 h, 5 μM is 0.4 ×10⁻⁶ cm/s and the efflux ratio at 2 h, 5 μM lay in the range of 10 to 30.

These data come from US20240368157A1, “FORMS AND COMPOSITIONS OF A JAK2 INHIBITOR” (Ajax Therapeutics, Inc., priority 2023, published 2024).
